Assay results as given in patent publication US9115143B2, “Substituted indole derivatives as gamma secretase modulators” (Janssen Pharmaceuticals, Inc., priority 2011, dated 2015).

Tests used:
Aβ42 = experiment: Screening for γ-secretase-modulating activity: Aβ42 in supernatant of SKNBE2 cells carrying hAPP 695 wild type (Alphalisa); assay type: cell-based, human; settings: overnight incubation, Alphalisa on supernatant
Method in brief: (§1)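 SKNBE2 human neuroblastoma cells expressing wild-type hAPP 695 (10^4/well) were incubated overnight at 37 °C, 5% CO2 with compound at several concentrations. Supernatant Aβ42 and Aβtotal measured by AlphaLISA sandwich immunoassays; IC50 from 4-parameter fit of percent of untreated control versus log concentration.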

Aβtotal = experiment: Screening for γ-secretase-modulating activity: Aβtotal in supernatant of SKNBE2 cells carrying hAPP 695 wild type (Alphalisa); assay type: cell-based, human; settings: overnight incubation, Alphalisa on supernatant
Method in brief: as §1

[1] = SKNBE2 human neuroblastoma cells carrying hAPP 695 wild type
[2] = Homo sapiens, SKNBE2, SKNBE2 human neuroblastoma cells carrying hAPP 695 wild type

Row | Structure (SMILES) | IC50 (Aβ42; [1]) [nM] | IC50 (Aβtotal; [1]) [µM] | IC50 (Aβtotal; [2]) [µM] | IC50 (Aβ42; [2]) [nM]
1 | COc1c(C#N)ccc2[nH]c(-c3nc4n(n3)CCOC4c3ccccc3Cl)cc12 (stereo not drawn) [Compound 140, 2-[8-(2-chlorophenyl)-5,6-dihydro-8H-[1,2,4]triazolo[5,1-c][1,4]oxazin-2-yl]-4-methoxy-1H-indole-5-carbonitrile] | 1150 | > 10 |  | 
2 | COc1c(C#N)ccc2[nH]c(-c3cn4c(n3)C(c3ccc(F)c(Cl)c3)OCC4)cc12 (stereo not drawn) [Compound 143, 2-[8-(3-chloro-4-fluorophenyl)-5,6-dihydro-8H-imidazo[2,1-c][1,4]oxazin-2-yl]-4-methoxy-1H-indole-5-carbonitrile] | 186 |  | > 10 | 
3 | COc1c(C#N)ccc2[nH]c(-c3nc4n(n3)CCOC4c3ccc(F)c(Cl)c3)cc12 (stereo not drawn) [Compound 144, 2-[8-(3-chloro-4-fluorophenyl)-5,6-dihydro-8H-[1,2,4]triazolo[5,1-c][1,4]oxazin-2-yl]-4-methoxy-1H-indole-5-carbonitrile] | 214 |  | > 10 | 
4 | COCc1ccccc1C1OCCn2cc(-c3cc4c(OC)c(C#N)ccc4[nH]3)nc21 (stereo not drawn) [Compound 145, 2-[5,6-dihydro-8-[2-(methoxymethyl)phenyl]-8H-imidazo[2,1-c][1,4]oxazin-2-yl]-4-methoxy-1H-indole-5-carbonitrile] | 110 | > 10 |  | 
5 | COCc1ccccc1C1OCCn2cc(-c3cc4c(OC)c(C#N)ccc4[nH]3)nc21 (stereo not drawn) [Compound 146, 2-[5,6-dihydro-8-[2-(methoxymethyl)phenyl]-8H-imidazo[2,1-c][1,4]oxazin-2-yl]-4-methoxy-1H-indole-5-carbonitrile] | 6170 | > 10 |  | 
6 | COc1c(C#N)ccc2[nH]c(-c3cn4c(n3)C(c3cc(F)ccc3C)OCC4)cc12 (stereo not drawn) [Compound 151, 2-[8-(5-fluoro-2-methylphenyl)-5,6-dihydro-8H-imidazo[2,1-c][1,4]oxazin-2-yl]-4-methoxy-1H-indole-5-carbonitrile] | 54 |  | > 10 | 
7 | COc1c(C#N)ccc2[nH]c(-c3cn4c(n3)C(c3c(F)cccc3C(F)(F)F)OCC4)cc12 (stereo not drawn) [Compound 152, 2-[8-[2-fluoro-6-(trifluoromethyl)phenyl]-5,6-dihydro-8H-imidazo[2,1-c][1,4]oxazin-2-yl]-4-methoxy-1H-indole-5-carbonitrile] | 3800 | > 10 |  | 
8 | COc1c(C#N)ccc2[nH]c(-c3cn4c(n3)C(c3ccc(F)c(Cl)c3)OCC4)cc12 (stereo not drawn) [Compound 155, 2-[8-(3-chloro-4-fluorophenyl)-5,6-dihydro-8H-imidazo[2,1-c][1,4]oxazin-2-yl]-4-methoxy-1H-indole-5-carbonitrile] | 1480 | > 10 |  | 
9 | COc1c(C#N)ccc2[nH]c(-c3nc4n(n3)CCOC4c3c(F)cccc3C(F)(F)F)cc12 (stereo not drawn) [Compound 162, 2-[8-[2-fluoro-6-(trifluoromethyl)phenyl]-5,6-dihydro-8H-[1,2,4]triazolo[5,1-c][1,4]oxazin-2-yl]-4-methoxy-1H-indole-5-carbonitrile] | 6920 | > 10 |  | 
10 | COc1c(C#N)ccc2[nH]c(-c3nc4n(n3)CCOC4c3c(F)cccc3C(F)(F)F)cc12 (stereo not drawn) [Compound 163, 2-[8-[2-fluoro-6-(trifluoromethyl)phenyl]-5,6-dihydro-8H-[1,2,4]triazolo[5,1-c][1,4]oxazin-2-yl]-4-methoxy-1H-indole-5-carbonitrile] | 52 | > 10 |  | 
11 | COc1c(C#N)ccc2[nH]c(-c3cn4c(n3)C(c3cc(C(F)(F)F)ccc3F)OCC4)cc12 (stereo not drawn) [Compound 165, 2-[8-[2-fluoro-5-(trifluoromethyl)phenyl]-5,6-dihydro-8H-imidazo[2,1-c][1,4]oxazin-2-yl]-4-methoxy-1H-indole-5-carbonitrile] | 4360 | > 10 |  | 
12 | Cc1cc(F)ccc1C1OCCn2nc(-c3cc4c(OC(C)C)c(C#N)ccc4[nH]3)nc21 (stereo not drawn) [Compound 166, 2-[8-(4-fluoro-2-methylphenyl)-5,6-dihydro-8H-[1,2,4]triazolo[5,1-c][1,4]oxazin-2-yl]-4-(1-methylethoxy)-1H-indole-5-carbonitrile] |  |  | > 10 | 347
